Laboratory results published in publication PMC6429507, “Triterpene-Based Carboxamides Act as Good Inhibitors of Butyrylcholinesterase” (Molecules, 2019).
Where two headings read alike, the source gives them in different places.

Columns and labels:
[1] = target: acetylcholinesterase (AChE, electric eel) (Electrophorus electricus, UniProt O42275)
Source text: (§1) In this study, carboxamides with different triterpenoic backbones (ursolic, oleanolic, maslinic, betulinic, and platanic acids), and various amine residues (Scheme 1), were investigated.
(§2) A TECAN SpectraFluorPlus working in the kinetic mode and measuring the absorbance at λ = 415 nm was used for the enzymatic studies. Acetylcholinesterase (from Electrophorus electricus), 5,5′-dithiobis-(2-nitrobenzoic acid) (DTNB) and acetylthiocholine iodide were purchased from Sigma. Butyrylcholinesterase (from equine serum) was purchased from Fluka. Preparation of the solutions, assay procedure, as well as molecular modeling conditions can be found in the Supplementary Materials.
(§3) 3.1 Preparation of the solutions
(§4) Preparation of 50 mM Tris-HCl buffer solutions: Tris(hydroxymethyl)-aminomethane (606 mg) was dissolved in bidestilled water (100 mL) and adjusted with HCl to a pH of 8.0 ± 0.1. Buffers were freshly prepared and stored in the refrigerator. AChE solution 2.005 U/mL: the enzyme (271 U/mg, 0.037 mg) was dissolved in freshly prepared buffer pH 8.0 (5 mL) containing NaN3 (0.98 mg). BChE solution 2.040 U/mL: the enzyme (7.54 U/mg, 1.353 mg) was dissolved in freshly prepared buffer pH 8.0 (5 mL) containing NaN3 (0.98 mg). DTNB solution 3 mM: DTNB (23.8 mg) was dissolved in freshly prepared buffer pH 8.0 (20 mL) containing NaCl (116.8 mg) and MgCl2 (38.0 mg). ATChI solution 15 mM:
(§5) ATChI (43.4 mg) was dissolved in bidestilled water (10 mL). All solutions were stored in Eppendorf caps in the refrigerator or in the freezer, if necessary. The pure compounds were […]
(§6) dissolved in bidistilled water. The final concentrations for the enzymatic assay were obtained by diluting the stock solution with bidistilled water.
(§7) A mixture of the DTNB solution (125 µL), enzyme solution (25 µL) and compounds solutions (25 µL, 3 different concentrations and once blank water) was prepared and incubated at 30 °C for 20 min. The substrate (25 µL, 4 different concentrations) was added to start the enzymatic reaction. The absorbance data (l = 415 nm) was recorded under a controlled temperature of 30 °C for 30 min at 1 min intervals. The substrate concentrations in the test were as follows: […]
(§8) determined as the quotient of the slopes (compound divided by blank) of the linear ranges.
(§9) The used substrate concentration was 0.625 mM. The absorbance data was recorded under a controlled temperature of 30 °C for 10 min.

[2] = target: T1, butyrylcholinesterase (BChE, equine serum) (Equus caballus, UniProt P81908); experiment: Ellman's assay, butyrylcholinesterase inhibition; type: biochemical; conditions: for Grade of inhibition in% BChE: mean ± SE; for selectivity F (percent inhibition for AChE divided by percent inhibition for BChE): towards BChE
T1 construct: Butyrylcholinesterase (from equine serum) was purchased from Fluka; purchased Fluka; host or cells: equine serum
T1 sequence (P81908 whole entry): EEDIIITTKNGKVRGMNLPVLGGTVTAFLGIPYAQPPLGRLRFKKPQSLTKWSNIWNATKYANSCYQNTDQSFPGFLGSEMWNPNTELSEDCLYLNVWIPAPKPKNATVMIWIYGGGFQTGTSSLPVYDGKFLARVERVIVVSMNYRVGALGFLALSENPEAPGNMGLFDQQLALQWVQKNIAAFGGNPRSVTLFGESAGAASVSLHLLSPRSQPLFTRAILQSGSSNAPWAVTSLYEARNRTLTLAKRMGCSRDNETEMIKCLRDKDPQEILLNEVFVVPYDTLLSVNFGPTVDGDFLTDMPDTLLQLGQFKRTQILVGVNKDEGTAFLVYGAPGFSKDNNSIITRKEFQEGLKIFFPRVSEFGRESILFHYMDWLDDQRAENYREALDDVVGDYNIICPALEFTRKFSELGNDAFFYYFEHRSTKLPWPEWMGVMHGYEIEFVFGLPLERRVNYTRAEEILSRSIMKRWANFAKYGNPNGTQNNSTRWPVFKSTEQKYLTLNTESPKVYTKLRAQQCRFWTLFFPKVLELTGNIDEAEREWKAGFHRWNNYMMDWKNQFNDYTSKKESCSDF
Source text: as §1, §2, §3, §4, §5, §6, §7, §8, §9

[3] = BChE, equine serum, Ellman's assay
[4] = BChE, equine serum, Ellman's assay, read-out: Ki (competitive inhibition)
[5] = experimental Ki restated in docking Table 3, unit inferred, read-out: Ki

Chain of acetylcholinesterase (AChE, electric eel) (O42275 24-633): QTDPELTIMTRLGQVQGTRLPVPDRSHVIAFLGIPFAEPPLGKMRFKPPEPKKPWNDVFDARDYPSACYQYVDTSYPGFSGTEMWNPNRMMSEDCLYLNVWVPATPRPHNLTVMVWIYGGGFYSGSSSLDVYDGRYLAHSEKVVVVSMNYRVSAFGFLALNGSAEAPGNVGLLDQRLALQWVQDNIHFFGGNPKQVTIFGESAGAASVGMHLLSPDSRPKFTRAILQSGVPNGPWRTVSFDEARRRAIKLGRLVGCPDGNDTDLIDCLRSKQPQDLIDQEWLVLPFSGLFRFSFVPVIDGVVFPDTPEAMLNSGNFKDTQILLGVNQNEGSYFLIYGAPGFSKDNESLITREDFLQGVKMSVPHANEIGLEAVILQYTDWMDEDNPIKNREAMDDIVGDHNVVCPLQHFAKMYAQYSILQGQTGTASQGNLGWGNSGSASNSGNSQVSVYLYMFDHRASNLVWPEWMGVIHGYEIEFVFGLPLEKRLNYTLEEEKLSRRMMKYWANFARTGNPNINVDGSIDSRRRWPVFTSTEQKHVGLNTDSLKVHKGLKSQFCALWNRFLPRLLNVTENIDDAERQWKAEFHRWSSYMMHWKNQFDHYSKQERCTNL

Row | SMILES | Grade of inhibition in% AChE ([1]; c = 10 µM, mean ± SE) | Type of Inhibition ([2]; BChE, equine serum) | Ki′ (uncompetitive inhibition) [2, 3] [µM] | Ki [2, 4] [µM] | Grade of inhibition in% BChE ([2]; c = 10 µM) [%] | Ki [2, 5] [µM] | selectivity F (percent inhibition for AChE divided by percent inhibition for BChE) [2] | Grade of inhibition in% AChE ([1]; c = 30 µM, mean ± SE) [%] | Grade of inhibition in% BChE ([2]; c = 30 µM) [%] | Type of Inhibition ([1]; AChE, electric eel) | Ki' (uncompetitive inhibition) ([1]; AChE, electric eel, mean ± SE) [µM] | Ki ([1]; read-out: Ki (competitive inhibition), AChE, electric eel, mean ± SE) [µM]
1 | CC(=O)O[C@H]1CC[C@@]2(C)C(CC[C@]3(C)C2CC=C2C4[C@@H](C)[C@H](C)CC[C@]4(C(=O)NCCN4CCCC4)CC[C@]23C)C1(C)C (stereo partly shown) [Compound 31] | 14.54 ± 0.36% | mixed-type | 6.00 ± 0.47 | 4.42 ± 0.34 | 50.49 ± 2.23 | 4.42 | – | – | – | – | – | –
2 | CC(=O)O[C@H]1CC[C@]2(C)[C@H]3CC=C4[C@@H]5CC(C)(C)CC[C@]5(C(=O)NCCN5CCCC5)CC[C@@]4(C)[C@]3(C)CC[C@H]2C1(C)C [Compound 32, (3β)-N-(2-Pyrrolidin-1-ylethyl)-3-acetyloxy-olean-12-en-28-amide] | 7.29 ± 0.50% | mixed-type | 29.88 ± 1.13 | 2.02 ± 0.56 | 65.73 ± 0.14 | – | 0.11 | – | – | – | – | –
3 | CC(=O)OC1CC2(C)C(CCC3(C)C2CC=C2C4CC(C)(C)CCC4(C(=O)NCCN4CCCC4)CCC23C)C(C)(C)C1OC(C)=O (stereo not drawn) [Compound 33, (2α,3β)-N-(2-Pyrrolidin-1-ylethyl)-2,3-diacetyloxy-olean-12-en-28-amide] | – | – | – | – | – | – | – | 23.47 ± 4.59 | 33.01 ± 2.91 | – | – | –
4 | C=C(C)C1CC[C@]2(C(=O)NCCN3CCCC3)CC[C@]3(C)C(CCC4[C@@]5(C)CC[C@H](OC(C)=O)C(C)(C)C5CC[C@]43C)C12 (stereo partly shown) [Compound 34] | 44.15 ± 0.32% | mixed-type | > 5 | 0.39 ± 0.04 | 71.56 ± 0.54 | 0.39 | – | – | – | – | – | –
5 | CC(=O)O[C@H]1CC[C@]2(C)[C@H]3CC[C@@H]4[C@H]5[C@H](C(C)=O)CC[C@]5(C(=O)NCCN5CCCC5)CC[C@@]4(C)[C@]3(C)CC[C@H]2C1(C)C [Compound 35, (3β)-N-(2-pyrrolidin-1-ylethyl)-3-acetyloxy-20-oxo-30-norlupan-28-amide] | – | mixed-type | 2.38 ± 0.48 | 0.07 ± 0.01 | – | 0.07 | ≈ 0.21 | 19.97 ± 0.13 | 94.60 ± 0.02 | – | – | –
6 | C[C@@H]1CC[C@]2(C(=O)NCCN3CCCC3)CC[C@]3(C)C(=CCC4[C@@]5(C)CC[C@H](O)C(C)(C)C5CC[C@]43C)C2[C@H]1C (stereo partly shown) [Compound 36] | – | mixed-type | 2.23 ± 0.12 | 0.47 ± 0.08 | – | – | – | 31.45 ± 0.60 | 85.66 ± 0.10 | – | – | –
7 | CC1(C)CCC2(C(=O)NCCN3CCCC3)CCC3(C)C(=CCC4C5(C)CCC(O)C(C)(C)C5CCC43C)C2C1 (stereo not drawn) [Compound 37, (3β)-N-(2-Pyrrolidin-1-ylethyl)-3-hydroxy-olean-12-en-28-amide] | 10.04 ± 1.70% | mixed-type | > 50 | 0.55 ± 0.02 | 74.50 ± 0.93 | – | – | – | – | – | – | –
8 | CC1(C)CCC2(C(=O)NCCN3CCCC3)CCC3(C)C(=CCC4C5(C)CC(O)C(O)C(C)(C)C5CCC43C)C2C1 (stereo not drawn) [Compound 38, (2α,3β)-N-(2-Pyrrolidin-1-ylethyl)-2,3-dihydroxy-olean-12-en-28-amide] | – | mixed-type | 14.15 ± 2.42 | 2.06 ± 0.03 | – | – | – | 23.33 ± 0.22 | 77.49 ± 0.10 | – | – | –
9 | C=C(C)C1CC[C@]2(C(=O)NCCN3CCCC3)CC[C@]3(C)C(CCC4[C@@]5(C)CC[C@H](O)C(C)(C)C5CC[C@]43C)C12 (stereo partly shown) [Compound 39] | – | mixed-type | > 9 | 3.24 ± 0.58 | – | – | – | 58.81 ± 0.80 | 60.48 ± 0.05 | – | – | –
10 | CC(=O)[C@@H]1CC[C@]2(C(=O)NCCN3CCCC3)CC[C@]3(C)[C@H](CC[C@@H]4[C@@]5(C)CC[C@H](O)C(C)(C)[C@@H]5CC[C@]43C)[C@@H]12 [Compound 40] | – | mixed-type | > 10 | 0.45 ± 0.01 | – | – | – | 33.06 ± 0.45 | 89.15 ± 0.44 | mixed-type | 23.63 ± 0.39 | 27.9 ± 2.99
11 | CC(=O)OC1CCC2(C)C(CCC3(C)C2CC=C2C4CC(C)(C)CCC4(C(=O)NCCN4CCCCC4)CCC23C)C1(C)C (stereo not drawn) [Compound 42, (3β)-N-(2-Piperidin-1-ylethyl)-3-acetyloxy-olean-12-en-28-amide] | – | – | – | – | – | – | – | 45.57 ± 0.25 | 53.09 ± 0.14 | – | – | –
12 | CC(=O)OC1CC2(C)C(CCC3(C)C2CC=C2C4CC(C)(C)CCC4(C(=O)NCCN4CCCCC4)CCC23C)C(C)(C)C1OC(C)=O (stereo not drawn) [Compound 43, (2α,3β)-N-(2-Piperidin-1-ylethyl)-2,3-diacetyloxy-olean-12-en-28-amide] | – | – | – | – | – | – | – | 23.30 ± 0.10 | 53.47 ± 3.47 | – | – | –
13 | C=C(C)C1CC[C@]2(C(=O)NCCN3CCCCC3)CC[C@]3(C)C(CCC4[C@@]5(C)CC[C@H](OC(C)=O)C(C)(C)C5CC[C@]43C)C12 (stereo partly shown) [Compound 44] | – | – | – | – | – | – | – | 22.78 ± 0.85 | 33.83 ± 0.43 | – | – | –
14 | CC(=O)O[C@H]1CC[C@]2(C)[C@H]3CC[C@@H]4[C@H]5[C@H](C(C)=O)CC[C@]5(C(=O)NCCN5CCCCC5)CC[C@@]4(C)[C@]3(C)CC[C@H]2C1(C)C [Compound 45, (3β)-N-(2-Piperidin-1-ylethyl)-3-acetyloxy-20-oxo-30-norlupan-28-amide] | no inhibition | mixed-type | 4.88 ± 0.21 | 0.71 ± 0.04 | 83.44 ± 1.00 | – | – | – | – | – | – | –
15 | CC1(C)CC[C@]2(C(=O)NCCN3CCCCC3)CC[C@]3(C)C(=CC[C@@H]4[C@@]5(C)CC[C@H](O)C(C)(C)[C@@H]5CC[C@]43C)[C@@H]2C1 [Compound 47, (3β)-N-(2-Piperidin-1-ylethyl)-3-hydroxy-olean-12-en-28-amide] | – | mixed-type | 10.42 ± 1.36 | 1.57 ± 0.01 | – | – | – | 38.65 ± 0.29 | 74.89 ± 0.04 | – | – | –
16 | CC1(C)CCC2(C(=O)NCCN3CCCCC3)CCC3(C)C(=CCC4C5(C)CC(O)C(O)C(C)(C)C5CCC43C)C2C1 (stereo not drawn) [Compound 48, (2α,3β)-N-(2-Piperidin-1-ylethyl)-2,3-dihydroxy-olean-12-en-28-amide] | 9.32 ± 0.29% | mixed-type | 6.21 ± 0.47 | 2.26 ± 0.05 | 69.30 ± 1.12 | – | – | – | – | – | – | –
